Laboratory results taken from paper PMC5341033, “Transcriptomic insight into terpenoid and carbazole alkaloid biosynthesis, and functional characterization of two terpene synthases in curry tree (Murraya koenigii)” (Scientific Reports, 2017).

Experiments:
MkTPS2 = target: T1, MkTPS2 (Murraya koenigii, UniProt A0A1U9M7X9); assay: terpene synthase assay, SPME GC-MS of products; type: biochemical; conditions: 70 μM FPP; 1 mM MgCl2, 5 mM DTT, 30 mM HEPES pH 7.5, 30 °C 2 h; product (E,E)-α-farnesene
T1 construct: full-length ORF, 560 aa; E. coli Rosetta-2; Ni-NTA purified
T1 sequence (A0A1U9M7X9 entry or part of it): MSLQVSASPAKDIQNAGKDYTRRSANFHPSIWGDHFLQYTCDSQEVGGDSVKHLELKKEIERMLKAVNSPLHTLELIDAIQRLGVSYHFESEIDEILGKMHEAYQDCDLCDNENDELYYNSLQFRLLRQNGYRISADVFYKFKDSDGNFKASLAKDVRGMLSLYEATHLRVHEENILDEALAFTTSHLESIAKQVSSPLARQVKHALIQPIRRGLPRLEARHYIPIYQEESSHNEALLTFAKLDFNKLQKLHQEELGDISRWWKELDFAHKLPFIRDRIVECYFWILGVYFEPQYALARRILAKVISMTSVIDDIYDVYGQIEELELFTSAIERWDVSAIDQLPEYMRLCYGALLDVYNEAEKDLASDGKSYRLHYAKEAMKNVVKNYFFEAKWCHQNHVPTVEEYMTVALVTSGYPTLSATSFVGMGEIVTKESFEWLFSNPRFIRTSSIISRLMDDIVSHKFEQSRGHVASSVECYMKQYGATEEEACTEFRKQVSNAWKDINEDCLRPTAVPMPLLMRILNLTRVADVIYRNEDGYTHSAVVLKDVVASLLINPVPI

MkTPS1 = target: T2, MkTPS1 (Murraya koenigii, UniProt A0A1U9M7Y9); assay: terpene synthase assay, SPME GC-MS of products; type: biochemical; conditions: 70 μM GPP; 1 mM MgCl2, 5 mM DTT, 30 mM HEPES pH 7.5, 30 °C 2 h; product (−)-sabinene
T2 construct: plastid transit peptide truncated at Met-40; full length 602 aa; E. coli Rosetta-2; Ni-NTA purified
T2 sequence (A0A1U9M7Y9 entry or part of it): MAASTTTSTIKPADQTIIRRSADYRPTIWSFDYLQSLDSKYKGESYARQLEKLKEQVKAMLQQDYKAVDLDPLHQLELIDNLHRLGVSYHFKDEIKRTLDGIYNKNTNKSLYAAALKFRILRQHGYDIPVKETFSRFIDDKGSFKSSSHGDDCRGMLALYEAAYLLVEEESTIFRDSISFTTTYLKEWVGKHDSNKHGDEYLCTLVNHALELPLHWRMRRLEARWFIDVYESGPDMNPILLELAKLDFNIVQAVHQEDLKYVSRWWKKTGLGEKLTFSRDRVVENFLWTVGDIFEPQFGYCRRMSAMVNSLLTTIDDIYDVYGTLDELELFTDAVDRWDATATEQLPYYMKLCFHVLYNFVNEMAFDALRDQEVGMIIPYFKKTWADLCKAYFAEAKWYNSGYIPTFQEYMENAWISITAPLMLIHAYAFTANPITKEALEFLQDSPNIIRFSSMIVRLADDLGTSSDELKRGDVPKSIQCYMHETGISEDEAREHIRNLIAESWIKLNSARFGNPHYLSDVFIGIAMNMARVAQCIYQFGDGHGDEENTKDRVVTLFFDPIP

Row | SMILES | terpene synthase assay, SPME GC-MS of products (MkTPS2) | terpene synthase assay, SPME GC-MS of products (MkTPS1)
1 | CC(C)=CCC/C(C)=C/CC/C(C)=C/COP(=O)(O)OP(=O)(O)O [farnesyl diphosphate] | MkTPS2, the product analysis showed the formation of α-farnesene with FPP as substrate | –
2 | CC(C)=CCC/C(C)=C/COP(=O)(O)OP(=O)(O)O [geranyl diphosphate] | – | MkTPS1 showed the formation of predominantly sabinene utilizing GPP as substrate
